{
  "source": "patent US20190219580A1",
  "about": "“METHODS OF DRUG THERAPY SELECTION FOR BREAST CANCER PATIENTS BASED ON HER2 AND HER3 PATHWAY SUBTYPING” (Nestec S.A., priority 2016, published 2019)",
  "origin": "cited, not measured here",
  "key": {"[1]": {"tested_on": "HER2-positive, locally advanced disease without previous treatment"}, "[2]": {"tested_on": "HER2-positive metastatic and locally advanced breast cancer", "settings": "first-line therapy"}, "breast cancer": {"tested_on": "breast cancer", "settings": "monotherapy"}, "[3]": {"tested_on": "HER2-positive breast cancer"}, "[4]": {"tested_on": "progressive, locally advanced, or metastatic HER2-positive breast cancer", "settings": "human, in vivo"}, "[5]": {"tested_on": "tumor xenografts which overexpress HER2", "settings": "in vivo"}, "[6]": {"settings": "trastuzumab-refractory patients"}},
  "note": "Read-outs that look alike come from different tables or passages of the source.",
  "data": [
    {"smiles": "CS(=O)(=O)CCNCc1ccc(-c2ccc3ncnc(Nc4ccc(OCc5cccc(F)c5)c(Cl)c4)c3c2)o1", "note": "[lapatinib]", "values": [
      {"measurement": "pCR rate", "setting": "[1]; patients with low PTEN expression and PI3 kinase mutation", "value": 87, "unit": "%"},
      {"measurement": "pCR rate", "setting": "[1]; single agent first, followed by trastuzumab/docetaxel ×4 cycles", "value": 68, "unit": "%"},
      {"measurement": "overall response rate", "setting": "[2]", "value": 24, "unit": "%"},
      {"measurement": "response rate", "setting": "breast cancer; trastuzumab-naive patients", "value": 24, "unit": "%"},
      {"measurement": "response rate", "setting": "breast cancer; [6]", "value": 5.1, "unit": "%"},
      {"measurement": "toxicity in the run-in phase", "setting": "[3]; with EC-DOC", "value": "lowered due to toxicity"},
      {"measurement": "pCR rate (no invasive disease in breast)", "setting": "[3]; with epirubicin, cyclophosphamide followed by docetaxel (EC-DOC), n=620", "value": 35, "unit": "%"}
    ]},
    {"smiles": "CCCCCOC(=O)Nc1nc(=O)n([C@@H]2O[C@H](C)[C@@H](O)[C@H]2O)cc1F", "note": "[capecitabine]", "values": [
      {"measurement": "median TTP", "setting": "[4]", "value": 4.4, "unit": "months"}
    ]},
    {"smiles": "CCOc1cc2ncc(C#N)c(Nc3ccc(OCc4ccccn4)c(Cl)c3)c2cc1NC(=O)/C=C/CN(C)C", "note": "[neratinib]", "values": [
      {"measurement": "response rate", "setting": "breast cancer; trastuzumab-naive patients", "value": 56, "unit": "%"},
      {"measurement": "response rate", "setting": "breast cancer; [6]", "value": 26, "unit": "%"},
      {"measurement": "tumor growth", "setting": "[5]", "value": "repress tumor growth in a dose-dependent manner"},
      {"measurement": "phosphorylation of MAPK and AKT signal transduction pathways", "setting": "BT474 cell lines", "value": "effectively repressed"}
    ]}
  ]
}
